Assays:
[1] = system: IGROV-1; test: Growth inhibition of human IGROV1 cells after 48 hrs by sulforhodamine B assay; assay type: functional; conditions: IGROV-1, 48 h
[2] = system: OVCAR-5; test: Growth inhibition of human OVCAR5 cells assessed as cell growth at 10 uM after 48 hrs by sulforhodamine B assay; assay type: functional; conditions: OVCAR-5, 48 h, read-out: Activity
[3] = system: SF-268; test: Growth inhibition of human SF268 cells assessed as cell growth at 10 uM after 48 hrs by sulforhodamine B assay; assay type: functional; conditions: SF-268, 48 h, read-out: Activity
[4] = Growth inhibition of human Hs 578T cells after 48 hrs by sulforhodamine B assay; assay type: functional; conditions: for CC50: read-out: LC50 (the source's name)
[5] = system: UACC-257; test: Growth inhibition of human UACC257 cells after 48 hrs by sulforhodamine B assay; assay type: functional; conditions: UACC-257, 48 h; for CC50: read-out: LC50 (the source's name)
[6] = system: MDA-MB-231; test: Growth inhibition of human MDA-MB-231 cells after 48 hrs by sulforhodamine B assay; assay type: functional; conditions: MDA-MB-231, 48 h
[7] = Growth inhibition of human NCI-ADR-RES cells after 48 hrs by sulforhodamine B assay; assay type: functional; conditions: for CC50: read-out: LC50 (the source's name)
[8] = system: RXF 393; test: Growth inhibition of human RXF393 cells after 48 hrs by sulforhodamine B assay; assay type: functional; conditions: RXF 393, 48 h
[9] = system: RPMI-8226; test: Growth inhibition of human RPMI8226 cells assessed as cell growth at 10 uM after 48 hrs by sulforhodamine B assay; assay type: functional; conditions: RPMI-8226, 48 h, read-out: Activity
[10] = system: NCI-H322M; test: Growth inhibition of human NCI-H322M cells after 48 hrs by sulforhodamine B assay; assay type: functional; conditions: for CC50: read-out: LC50 (the source's name)
[11] = system: MDA-MB-435; test: Growth inhibition of human MDA-MB-435 cells after 48 hrs by sulforhodamine B assay; assay type: functional, cell-based; conditions: MDA-MB-435, 48 h; for CC50: read-out: LC50 (the source's name)
[12] = system: HL-60(TB); test: Growth inhibition of human HL-60(TB) cells after 48 hrs by sulforhodamine B assay; assay type: functional; conditions: HL-60, 48 h; for CC50: read-out: LC50 (the source's name)
[13] = system: OVCAR-5; test: Growth inhibition of human OVCAR5 cells after 48 hrs by sulforhodamine B assay; assay type: functional; conditions: OVCAR-5, 48 h
[14] = system: T47D; test: Growth inhibition of human T47D cells assessed as cell growth at 10 uM after 48 hrs by sulforhodamine B assay; assay type: functional; conditions: read-out: Activity
[15] = system: CCRF-CEM; test: Growth inhibition of human CCRF-CEM cells after 48 hrs by sulforhodamine B assay; assay type: functional
[16] = system: SW-620; test: Growth inhibition of human SW620 cells assessed as cell growth at 10 uM after 48 hrs by sulforhodamine B assay; assay type: functional; conditions: SW-620, 48 h, read-out: Activity
[17] = system: NCI-H23; test: Growth inhibition of human NCI-H23 cells assessed as cell growth at 10 uM after 48 hrs by sulforhodamine B assay; assay type: functional; conditions: NCI-H23, 48 h, read-out: Activity
[18] = system: DU-145; test: Growth inhibition of human DU145 cells assessed as cell growth at 10 uM after 48 hrs by sulforhodamine B assay; assay type: functional; conditions: DU-145, 48 h, read-out: Activity
[19] = system: MOLT-4; test: Growth inhibition of human MOLT4 cells after 48 hrs by sulforhodamine B assay; assay type: functional; conditions: MOLT-4, 48 h; for CC50: read-out: LC50 (the source's name)
[20] = system: KM12; test: Growth inhibition of human KM12 cells after 48 hrs by sulforhodamine B assay; assay type: functional, cell-based; conditions: KM12, 48 h; for CC50: read-out: LC50 (the source's name)
[21] = system: BT-549; test: Growth inhibition of human BT549 cells after 48 hrs by sulforhodamine B assay; assay type: functional; conditions: BT-549, 48 h
[22] = system: HOP-62; test: Growth inhibition of human HOP62 cells assessed as cell growth at 10 uM after 48 hrs by sulforhodamine B assay; assay type: functional; conditions: HOP-62, 48 h, read-out: Activity
[23] = system: K562; test: Growth inhibition of human K562 cells assessed as cell growth at 10 uM after 48 hrs by sulforhodamine B assay; assay type: functional; conditions: K562, 48 h, read-out: Activity
[24] = system: NCI-H460; test: Growth inhibition of human NCI-H460 cells after 48 hrs by sulforhodamine B assay; assay type: functional; conditions: NCI-H460, 48 h
[25] = system: MCF7; test: Growth inhibition of human MCF7 cells after 48 hrs by sulforhodamine B assay; assay type: functional; conditions: MCF7, 48 h
[26] = system: SK-MEL-28; test: Growth inhibition of human SK-MEL-28 cells assessed as cell growth at 10 uM after 48 hrs by sulforhodamine B assay; assay type: functional; conditions: SK-MEL-28, 48 h, read-out: Activity
[27] = system: COLO 205; test: Growth inhibition of human COLO205 cells assessed as cell growth at 10 uM after 48 hrs by sulforhodamine B assay; assay type: functional; conditions: COLO 205, 48 h, read-out: Activity
[28] = system: MDA-MB-231; test: Growth inhibition of human MDA-MB-231 cells assessed as cell growth at 10 uM after 48 hrs by sulforhodamine B assay; assay type: functional; conditions: MDA-MB-231, 48 h, read-out: Activity
[29] = system: U-251; test: Growth inhibition of human U251 cells assessed as cell growth at 10 uM after 48 hrs by sulforhodamine B assay; assay type: functional; conditions: U-251, 48 h, read-out: Activity
[30] = system: PC-3; test: Growth inhibition of human PC3 cells after 48 hrs by sulforhodamine B assay; assay type: functional, cell-based; conditions: PC-3, 48 h; for CC50: read-out: LC50 (the source's name)
[31] = system: SK-MEL-2; test: Growth inhibition of human SK-MEL-2 cells after 48 hrs by sulforhodamine B assay; assay type: functional; conditions: SK-MEL-2, 48 h
[32] = system: M14; test: Growth inhibition of human M14 cells assessed as cell growth at 10 uM after 48 hrs by sulforhodamine B assay; assay type: functional; conditions: M14, 48 h, read-out: Activity
[33] = system: SF-295; test: Growth inhibition of human SF295 cells after 48 hrs by sulforhodamine B assay; assay type: functional, cell-based; conditions: SF-295, 48 h; for CC50: read-out: LC50 (the source's name)

COc1cc(-c2nn(-c3cccc(NC(=O)Nc4ccc(Cl)c(C(F)(F)F)c4)c3)cc2-c2ccncc2)ccc1Cl
GI50 [1]: 1.2 µM | LC50 (concentration killing 50% of cells) [1]: > 32.5 µM | TGI [1]: 4.22 µM | growth at 10 µM [2]: 35.8% | growth at 10 µM [3]: 13.8% | GI50 [4]: 1.32 µM | TGI [4]: 18.3 µM | CC50 [4]: > 32.5 µM | GI50 [5]: 1.21 µM | TGI [5]: 6.03 µM | CC50 [5]: 29.2 µM | GI50 [6]: 0.76 µM | LC50 [6]: 13.3 µM | TGI [6]: 2.6 µM | GI50 [7]: 1.04 µM | TGI [7]: 7.99 µM | CC50 [7]: > 32.5 µM | GI50 [8]: 1.18 µM | LC50 (concentration killing 50% of cells) [8]: > 32.5 µM | TGI [8]: 6.29 µM | growth at 10 µM [9]: -8.66% | GI50 [10]: 1.5 µM | TGI [10]: 13.9 µM | CC50 [10]: > 32.5 µM | GI50 [11]: 0.683 µM | IC50 [11]: 0.68 µM | TGI [11]: 1.69 µM | CC50 [11]: > 32.5 µM | GI50 [12]: 1.17 µM | TGI [12]: > 32.5 µM | CC50 [12]: > 32.5 µM | GI50 [13]: 3.09 µM | LC50 (concentration killing 50% of cells) [13]: > 32.5 µM | TGI [13]: 11 µM | growth at 10 µM [14]: 0.62% | GI50 [15]: 0.98 µM | LC50 [15]: > 32.5 µM | TGI [15]: > 32.5 µM | growth at 10 µM [16]: 15.4% | growth at 10 µM [17]: 5.69% | growth at 10 µM [18]: 20.3% | GI50 [19]: 1.02 µM | TGI [19]: 7.96 µM | CC50 [19]: > 32.5 µM | GI50 [20]: 1.06 µM | TGI [20]: 3.92 µM | CC50 [20]: 14.9 µM | GI50 [21]: 2.36 µM | LC50 (50% lethal concentration) [21]: > 32.5 µM | TGI [21]: 10.2 µM | growth at 10 µM [22]: 5.4% | growth at 10 µM [23]: 3.8% | GI50 [24]: 1.11 µM | LC50 [24]: > 32.5 µM | TGI [24]: 4.79 µM | GI50 [25]: 0.919 µM | LC50 [25]: > 32.5 µM | TGI [25]: > 32.5 µM | growth at 10 µM [26]: 8.8% | growth at 10 µM [27]: -91.6% | growth at 10 µM [28]: -52.4% | growth at 10 µM [29]: -20.9% | GI50 [30]: 0.69 µM | IC50 [30]: 0.69 µM | TGI [30]: 2.45 µM | CC50 [30]: > 32.5 µM | GI50 [31]: 1.01 µM | LC50 (50% lethal concentration) [31]: 17.5 µM | TGI [31]: 2.58 µM | growth at 10 µM [32]: -11.7% | GI50 [33]: 0.84 µM | IC50 [33]: 0.84 µM | TGI [33]: 2.54 µM | CC50 [33]: 14.9 µM

O=C(Nc1cccc(-n2cc(-c3ccncc3)c(-c3ccc(Cl)c(O)c3)n2)c1)c1ccc(N2CCOCC2)c(C(F)(F)F)c1
GI50 [1]: 9.42 µM | LC50 (concentration killing 50% of cells) [1]: > 50 µM | TGI [1]: > 50 µM | growth at 10 µM [2]: 116% | growth at 10 µM [3]: 55.5% | GI50 [4]: 1.85 µM | TGI [4]: > 50 µM | CC50 [4]: > 50 µM | GI50 [5]: 6.3 µM | TGI [5]: 36.8 µM | CC50 [5]: > 50 µM | GI50 [6]: 0.975 µM | LC50 [6]: > 50 µM | TGI [6]: 15.6 µM | GI50 [7]: 2.86 µM | TGI [7]: > 50 µM | CC50 [7]: > 50 µM | GI50 [8]: 0.626 µM | LC50 (concentration killing 50% of cells) [8]: > 50 µM | TGI [8]: 2.9 µM | growth at 10 µM [9]: 5.19% | GI50 [10]: > 50 µM | TGI [10]: > 50 µM | CC50 [10]: > 50 µM | GI50 [11]: 2.04 µM | IC50 [11]: 2.04 µM | TGI [11]: > 50 µM | CC50 [11]: > 50 µM | GI50 [12]: 3.81 µM | TGI [12]: > 50 µM | CC50 [12]: > 50 µM | GI50 [13]: > 50 µM | LC50 (concentration killing 50% of cells) [13]: > 50 µM | TGI [13]: > 50 µM | growth at 10 µM [14]: 69.4% | GI50 [15]: 1.82 µM | LC50 [15]: > 50 µM | TGI [15]: > 50 µM | growth at 10 µM [16]: 6.29% | growth at 10 µM [17]: 61.3% | growth at 10 µM [18]: 52.7% | GI50 [19]: 2.37 µM | TGI [19]: 36.7 µM | CC50 [19]: > 50 µM | GI50 [20]: 1.94 µM | TGI [20]: > 50 µM | CC50 [20]: > 50 µM | GI50 [21]: 19.4 µM | LC50 (50% lethal concentration) [21]: > 50 µM | TGI [21]: > 50 µM | growth at 10 µM [22]: 40.4% | growth at 10 µM [23]: 7.96% | GI50 [24]: 1.72 µM | LC50 [24]: > 50 µM | TGI [24]: 14.8 µM | GI50 [25]: 2.81 µM | LC50 [25]: > 50 µM | TGI [25]: > 50 µM | growth at 10 µM [26]: 1.14% | growth at 10 µM [27]: 96.1% | growth at 10 µM [28]: 23.4% | growth at 10 µM [29]: 11.8% | GI50 [30]: 2.15 µM | IC50 [30]: 2.15 µM | TGI [30]: > 50 µM | CC50 [30]: > 50 µM | GI50 [31]: 2.89 µM | LC50 (50% lethal concentration) [31]: > 50 µM | TGI [31]: 15.3 µM | growth at 10 µM [32]: 22.7% | GI50 [33]: 1.71 µM | IC50 [33]: 1.71 µM | TGI [33]: 7.55 µM | CC50 [33]: 37 µM

From ChEMBL document CHEMBL2440076, “New triarylpyrazoles as broad-spectrum anticancer agents: design, synthesis, and biological evaluation” (Eur J Med Chem, 2013)
